Measurements published in patent US10544440B2, “Multiple protease deficient filamentous fungal cells and methods of use thereof” (Glykos Finland OY, priority 2013, dated 2020).
Square brackets hold non-standard residues; d marks the D form. Peptide text beside a SMILES is read from it. * marks the point of attachment. Sta = CC(C)C[C@H](N)[C@@H](O)CC(=O)O; Isovaleryl = CC(C)CC(=O)*

B1: SBTI: soybean trypsin inhibitor, protease inhibitor (protein, UniProt P01070 25-205, looked up)
Trypsin inhibitor A: DFVLDNEGNPLENGGTYYILSDITAFGGIRAAPTGNERCPLTVVQSRNELDKGIGTIISSPYRIRFIAEGHPLSLKFDSFAVIMLCVGIPTEWSVVEDLPEGPAVKIGENKDAMDGWFRLERVSDDEFNNYKLVFCPQQAEDDKCGDIGISIDHDDGTRRLVVSKNKPLVVQFQKLDKESL

What was measured:
M393 strain = test: FGF21 production by M393 in 24 well cultures treated with protease inhibitors; assay type: cell-based, Trichoderma reesei; settings: M393 24 well culture, 10 μM pepstatin A added, day 6
Method: The M393 strain was grown with and without protease inhibitors pepstatin A, chymostatin, or soybean trypsin inhibitor. Independent wells were chosen for control wells where no inhibitors were added. This strain was grown in 3 ml of TrMM with diammonium citrate without ammonium sulfate, 100 mM PIPPS, 20 g/L spent grain extract, 40 g/L lactose adjusted to pH 4.5. The 24 well plates were shaken at 800 rpm at 85% humidity. The plate was covered with an air permeable membrane and the cultures were grown for 6 days.
Inhibitors were added first on day 3 and then added daily until day 6. 200 μl samples were taken from the culture wells beginning on day 3. The mycelium was spun down for 5 minutes at 13 k and the supernatant collected. From the culture supernatant 5 μl plus LSB was loaded in a 4-20% SDS PAGE gel and immunoblotting made on nitrocellulose with rabbit anti-FGF21 (2 μg/ml) and goat anti-rabbit IgG AP conjugated secondary antibody diluted 1:10,000. FGF21 standard were included on the blot for quantification.

M1200 strain = test: Inhibitor studies on FGF21 production strain M1200 in 24 well culture; assay type: cell-based, Trichoderma reesei; settings: M1200 24 well culture, inhibitors 10 μM, SBTI 0.1 mg/ml; for FGF21 expression, lower band / FGF21 expression, total product / FGF21 expression, upper band: day 4 immunoblot
From the text: Chymostatin and SBTI are known to inhibit SLP2 and SLP7 subtilisin proteases that are still expressed in the M1200 strain. Pepstatin inhibits aspartic proteases such as PEP8, PEP11, PEP12 which are known to be secreted into the supernatant. 1,10-phenathroline targets mainly zinc metalloproteases which are secreted by Trichoderma. The M1200 strain was cultivated in 24 well format in TrMM with 10 g/L yeast extract, 20 g/L cellobiose, 10 g/L sorbose, PIPPS buffered at pH 4.5. Chymostatin, phenathroline, and pepstatin were used at a final concentration of 10 μM and SBTI was used at 0.1 mg/ml. Each treatment was done in duplicate wells and the untreated control was cultured in 4 wells.
The cultures were started by adding 1×10^7 spores into 50 ml of culture medium and adding 3 ml of culture medium plus spores to each well (6×10^5 spores/well). 100 μl of each culture supernatant was collected on days 4, 5, and 6. The mycelium was spun down to remove only the supernatant. Orange LSB was added and the samples were heated for 5 minutes. 2 μl of the supernatant+LSB was loaded per well into 4-20% Criterion TGX gel. The gel was run and proteins were transferred to nitrocellulose membranes.
The expressed FGF21 was detected by immunoblotting as above. A commercially purchased N-terminal antibody rabbit polyclonal from Abcam (#ab66564) and C-terminal rabbit polyclonal antibody from Abcam (#ab137715) were used in some cases.

Molecule | FGF21 production (M393 strain) | FGF21 expression, lower band (M1200 strain) [Fluorescent units] | FGF21 expression, total product (M1200 strain) [Fluorescent units] | FGF21 expression, upper band (M1200 strain) [Fluorescent units] | effect of inhibitor treatment on FGF21 forms (immunoblot) (M1200 strain)
CC(C)CC(=O)N[C@H](C(=O)N[C@H](C(=O)N[C@@H](CC(C)C)[C@@H](O)CC(=O)N[C@@H](C)C(=O)N[C@@H](CC(C)C)[C@@H](O)CC(=O)O)C(C)C)C(C)C [pepstatin, pepstatin A] (Isovaleryl-VV[Sta]A[Sta]-OH) | up to 160 mg/L | 51050 | 52660 | 1610 | only improved the expression level of the 10 kD form
CC(C)C[C@H](NC(=O)[C@@H](NC(=O)N[C@@H](Cc1ccccc1)C(=O)O)[C@@H]1CCN=C(N)N1)C(=O)N[C@H](C=O)Cc1ccccc1 [chymostatin] |  | 19500 | 53700 | 34200 | improved the stability of the protein allowing a 17 kD major product
c1cnc2c(c1)ccc1cccnc12 [1,10-phenathroline] |  | 68800 | 69574 | 774 | only improved the expression level of the 10 kD form
B1 |  | 37050 | 50850 | 13800 | only improved the expression level of the 10 kD form
